Experimental data published in article PMC12070378 (Microbial Biotechnology, 2025).

Target: T1, Sortase A (SrtA) (Staphylococcus aureus, UniProt Q2FV99)
T1 sequence (Q2FV99 60-206): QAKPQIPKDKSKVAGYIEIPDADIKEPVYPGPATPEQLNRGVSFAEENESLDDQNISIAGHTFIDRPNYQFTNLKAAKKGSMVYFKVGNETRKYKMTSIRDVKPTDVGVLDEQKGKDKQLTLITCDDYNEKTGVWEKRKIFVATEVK
Test: FRET cleavage assay of Abz-LPATG-Dap
Format: biochemical

## CC(=O)/C=C/c1ccc(O)c(O)c1 [OSC, osmundacetone]
  IC50: 7.24 µM
